Measured values published in US4196202A, “Carcinostatic composition containing 3-N-o-toluyl-5-fluorouracil producing the same” (priority 1977, dated 1980).
In brackets after ≈: the same amount, converted by molar mass. Read-outs that look alike come from different tables or passages of the source.

How the values were obtained:
Leiomyosarcoma cells = assay: growth inhibition of leiomyosarcoma cells in culture (Example 8); assay type: cell-based, human; settings: for IC50 / MIC: Homo sapiens, 72 h; for IC50: dose per unit volume effective for 50% of the cells, read-out: ED50 (the source's name)
Excerpt: (§1) Included in Tables 5 through 7 for comparison are carcinostatic effect of 3-N-o-toluyl-5-FU on various kinds of cancerous cells. In these tables, MIC represents minimum inhibitory concentration (γ or microgram/ml) required to inhibit the growth of cancerous cells in a culture medium and ED50 (γ or microgram/ml) represents the dose per unit volume effective for 50% of the cells.
(3) Leiomyosarcoma cells of human.
(§2) Each kind of said cancerous cells, having an initial number of 3×10^4 and 4×10^4 was cultured in a nutrient medium on a slide glass in a flat bottle for 24 hours to make more than one sample, respectively; half for 5-FU and the other for 3-N-o-toluyl-5-FU in oil emulsion. Then 5-FU diluted with water of different concentrations and 3-N-o-toluyl-5-FU in oil emulsion of different concentrations was respectively added to the cells of each of said plate to make several different concentrations of said compounds per unit volume of each cell, and the culture was continued for three days. The manner of the action of each of said compounds against each of the cells at different concentrations (weight per unit volume of cell) was observed by an inverted phase contrast microscope with the passage of time, as well as the multiplication and the change in morphology of the cells were examined by fixing and staining the cells on the slide glass after a period of three days. As a nutrient medium, MEM S10 or HAM-F S10 was employed. HAM-F S10 is a 10% serum supplemented medium described by Richard G. Ham in 1964, and is sold under the tradename "HAM F12 Nissui" in Japan.
(§3) The molecular weight of 5-FU is about 130 and that of 3-N-o-toluyl-5-FU is about 248. […] Accordingly, as used in the following explanations, the terms "weight concentration" refers to the γgm/ml of each compound used in a given test, and the term "molarity" generally refers to the number of molecules of each compound present in a given amount used in a test.

Ehrich cancerous cells = assay: growth inhibition of Ehrich cancerous cells in culture (Example 6); assay type: cell-based, mouse; settings: for MIC / IC50: Mus musculus, 72 h; for IC50: Ehrlich, dose per unit volume effective for 50% of the cells, read-out: ED50 (the source's name)
Method: Cancerous cells employed:
(1) Ehrich cancerous cells of mouse;
Each kind of said cancerous cells, having an initial number of 3×10^4 and 4×10^4 was cultured in a nutrient medium on a slide glass in a flat bottle for 24 hours to make more than one sample, respectively; half for 5-FU and the other for 3-N-o-toluyl-5-FU in oil emulsion. Then 5-FU diluted with water of different concentrations and 3-N-o-toluyl-5-FU in oil emulsion of different concentrations was respectively added to the cells of each of said plate to make several different concentrations of said compounds per unit volume of each cell, and the culture was continued for three days. […] As a nutrient medium, MEM S10 or HAM-F S10 was employed.

[1] = system: AH 130 (tumor cells of liver cancer of a rat); assay: Carcinostatic effect against AH 130 (tumor cells of liver cancer of a rat), and toxicity (Example 5); assay type: in vivo; settings: for ratio of tumor in wt.: seven days, Control 1.00
Method: To further show the advantageous effects of 3-N-o-toluyl-5-FU of the present invention over related compounds known in the art, such as FT-207 and 5-FU, tests were conducted in accordance with the procedures as described below and the results are presented in Tables 3 and 4.
Rats were separated into 7 groups of 10 rats. AH 130, having an initial cell number of 5×10^5, was injected hypodermically into each subject and, after 24 hours, each composition was given to each subject rat at the dose shown in Table 4 for seven (7) consecutive days. On the 10th day from the initial innoculation, each subject was anatomized to examine the tumor weight, the average of which was compared with that of the non-treated Control. In this test, 3-N-o-toluyl-5-FU was also administered orally in the form of powder as in the former test.

Sarcoma 180 = assay: Carcinostatic effect against Sarcoma 180 of a mouse, and toxicity (Example 5); assay type: in vivo; settings: for toxicity: general debility, decrease in weight and napping; for ratio of tumor in wt.: seven days, Control 1.00
Method: Mice were separated into 7 groups of 10 mice. Sarcoma 180, having an initial cell number of 5×10^5, was innoculated hypodermically into each subject. After 24 hours, each composition was given to the subject mouse, except the Control, at the dose as shown in Table 3 for seven (7) consecutive days. On the tenth day from the initial innoculation, each subject was anatomized to examine the tumor weight, the average of which was then compared with that of the Control. Toxicity was also interpreted in view of general debility, decrease in weight and napping. In this test, 3-N-o-toluyl-5-FU was administered orally in the form of powder mixed with water, which was isolated by chromatography from that in oil emulsion.

[2] = side-effects on normal cells, mouse foot pad cells (Example 9); assay type: cell-based; settings: mouse, foot pad cells; for cytotoxicity: MIC for Ehlrich cancerous cells versus ED50 for normal cells, read-out: normal cells damaged at the minimum dose inhibiting multiplication of the cancerous cells; for CC50 at 72 h: Table 8, normal cells, procedures of Examples 6-8, read-out: ED50
Method: as §2
(§4) Using the same procedures as in Examples 6-8, it was investigated whether the compound of the invention causes side-effects on normal cells.
(§5) ED50 for normal cells mean that this dose will inhibit the normal propagation of 50% of unattacked cells (that is, it may cause a harmful influence upon normal cells), while MIC for cancerous cells means that this dose will inhibit the multiplication of 100% of cancerous cells. Consequently when MIC of a compound for cancerous cells exceeds ED50 of the same for normal cells, it is considered that this compound must have side-effects.

mouse foot pad cells = assay: as above; assay type: cell-based; settings: for MIC: Mus musculus, 72 h, Table 8, normal cells, procedures of Examples 6-8
Method: as §2, §4, §5

[3] = system: human thyroid cancer cells; assay: growth inhibition of human thyroid cancerous cells in culture (Example 7); assay type: cell-based; settings: for IC50 / MIC: Homo sapiens, 72 h; for IC50: dose per unit volume effective for 50% of the cells, read-out: ED50 (the source's name)
Excerpt: as §1
(2) Human thyroid cancerous cells; and
as §2, §3

[4] = system: cancerous and tumorous cells; assay: tests of carcinostatic effect (several tests including a biological test); settings: high dose sometimes leads to less effect than a low dose
Excerpt: The present invention relates to carcinostatic compounds and compositions and a process for producing the same chiefly containing 5-fluorouracil derivatives (hereinafter referred to as 5-FU). 5-FU and its various derivatives are known to act as carcinostatic agents which disrupt cancerous cells or depress the multiplication thereof. […] That is to say, in spite of the fact that a remarkable carcinostatic effect was achnowledged using a low dose, a high dose sometimes leads to less carcinostatic effects than a low dose. […] In general, it can be easily presumed that these acylated 5-FU compounds, having the substituent group of NH, are to be obtained in acylation with the reagents represented by the general formula such as RCOX, wherein R represents an acyl group and X is halogen and (RCO)2 O, wherein R is an acyl group. However, 3-N-acyl-5-FU cannot be obtained directly from 5-FU because the acylation will preferably occur at the 1-position of 5-FU when 5-FU is reacted with the reagents under normal conditions. […]
In addition, the composition has many other advantageous features, e.g., only a low dose is necessary to be effective so that harmful side-effects are avoided as regards the normal cells. […] Furthermore, it is believed that the 5-FU ring is readily incorporated into RNA as a substituent for uracil. […]

[5] = Table 7, minimum inhibitory concentration, three days, read-out: MIC
[6] = Example 9, read-out: MIC for Ehrich cancerous cells
[7] = Table 5, minimum inhibitory concentration, three days, read-out: MIC
[8] = 30 mg/kg daily, total 210 mg/kg
[9] = Tables 3 and 4 (Sarcoma 180 mice and AH 130 rats)
[10] = Table 6, minimum inhibitory concentration, three days, read-out: MIC
[11] = 100 mg/kg daily, total 700 mg/kg
[12] = 90 mg/kg daily, total 630 mg/kg
[13] = 200 mg/kg daily, total 1400 mg/kg

## O=c1[nH]cc(F)c(=O)[nH]1 [5-FU, 5-fluorouracil]
Leiomyosarcoma cells; Table 7, three days
  IC50: 1.25 µg/mL (≈ 9.61 µM)
Leiomyosarcoma cells; [5]
  MIC: 2.5 µg/mL (≈ 19.2 µM)
Leiomyosarcoma cells; Table 9, read-out: MIC (leiomysarcoma)
  MIC: 2.5 µg/mL (≈ 19.2 µM)
Ehrich cancerous cells; [6]
  MIC: 2.5 µg/mL (≈ 19.2 µM)
Ehrich cancerous cells; [7]
  MIC: 2.5 µg/mL (≈ 19.2 µM)
Ehrich cancerous cells; Table 9 and text, read-out: MIC (Elrich cancerous cells)
  MIC: 2.5 µg/mL (≈ 19.2 µM)
Ehrich cancerous cells; Table 5, three days
  IC50: 1 µg/mL (≈ 7.69 µM)
[1]; 10 mg/kg daily, total 70 mg/kg
  toxicity: -
  ratio of tumor in wt.: 0.72
[1]; [8]
  toxicity: +
  ratio of tumor in wt.: 0.55
Sarcoma 180; 10 mg/kg daily, total 70 mg/kg
  toxicity: -
  ratio of tumor in wt.: 0.840
Sarcoma 180; [8]
  toxicity: +
  ratio of tumor in wt.: 0.540
Sarcoma 180; [9]
  toxic side-effects with increasing amount administered: increasing the amount of the compound administered produces toxic results
[2]
  cytotoxicity: 50%
  CC50 at 72 h: 2.5 µg/mL (≈ 19.2 µM)
Mouse foot pad cells
  MIC: 10 µg/mL (≈ 76.9 µM)
[3]; Table 6, three days
  IC50: 1.25 µg/mL (≈ 9.61 µM)
[3]; [10]
  MIC: 2.5 µg/mL (≈ 19.2 µM)
[3]; Table 9, read-out: MIC (human thyroid cancerous cells)
  MIC: 2.5 µg/mL (≈ 19.2 µM)

## Cc1ccccc1C(=O)n1c(=O)[nH]cc(F)c1=O [3-N-o-toluyl-5-FU, 3-N-o-toluyl-5-fluorouracil]
Leiomyosarcoma cells; Table 7, three days
  IC50: 0.3 µg/mL (≈ 1.21 µM)
Leiomyosarcoma cells; [5]
  MIC: 1.25 µg/mL (≈ 5.04 µM)
Leiomyosarcoma cells; weight concentration, Table 7
  carcinostatic efficacy compared with 5-FU: considerably superior to 5-FU
Ehrich cancerous cells; [6]
  MIC: 2 µg/mL (≈ 8.06 µM)
Ehrich cancerous cells; [7]
  MIC: 2 µg/mL (≈ 8.06 µM)
Ehrich cancerous cells; Table 5, three days
  IC50: 1 µg/mL (≈ 4.03 µM)
Ehrich cancerous cells; number of molecules as reference standard
  number of molecules for ED50 relative to 5-FU: half that of 5-FU
Ehrich cancerous cells; weight concentration and molarity
  MIC compared with 5-FU: apparently superior to 5-FU in both weight concentration and molarity
[1]; [8]
  toxicity: -
  ratio of tumor in wt.: 0.84
[1]; [11]
  toxicity: -
[1]; 100 mg/kg daily, total 700 mg/kg, oral powder
  ratio of tumor in wt.: 0.35
Sarcoma 180; 50 mg/kg daily, total 350 mg/kg
  toxicity: -
Sarcoma 180; 50 mg/kg daily, total 350 mg/kg, oral powder mixed with water
  ratio of tumor in wt.: 0.550
Sarcoma 180; [11]
  toxicity: -
  ratio of tumor in wt.: 0.367
Sarcoma 180; [9]
  toxic side-effects with increasing amount administered: does not produce toxic side-effects
[2]
  cytotoxicity: < 50%
  CC50 at 72 h: 2.5 µg/mL (≈ 10.1 µM)
Mouse foot pad cells; MIC for Ehrich cancerous cells versus ED50 for normal cells
  side-effects compared with 5-FU: less side-effects than 5-FU
Mouse foot pad cells
  MIC: 10 µg/mL (≈ 40.3 µM)
[3]; Table 6, three days
  IC50: 0.6 µg/mL (≈ 2.42 µM)
[3]; [10]
  MIC: 1.25 µg/mL (≈ 5.04 µM)
[3]; Table 6
  dose in weight concentration for carcinostatic effects, compared with 5-FU: less than half the dose in weight concentration than that of 5-FU

## O=c1[nH]c(=O)n(C2CCCO2)cc1F (centres unmarked) [FT-207]
[1]; [12]
  toxicity: -
  ratio of tumor in wt.: 0.60
[1]; [13]
  toxicity: +
  ratio of tumor in wt.: 0.35
Sarcoma 180; [11]
  toxicity: -
  ratio of tumor in wt.: 0.516
Sarcoma 180; [13]
  toxicity: +
  ratio of tumor in wt.: 0.418
Sarcoma 180; mouse, in vivo
  toxic side-effects with increasing amount administered: increasing the amount of the compound administered produces toxic results

## Cc1ccccc1C(=O)n1cc(F)c(=O)n(C(=O)c2ccccc2C)c1=O [1,3-di-N-o-toluyl-5-FU]
[4]
  carcinostatic effect, stability of the effect: extremely unstable
